From US10421765B2, “Tetrahydropyrido[4,3-d]pyrimidine inhibitors of ATR kinase” (Board of Regents, The University of Texas System, priority 2017, dated 2019)
Read-outs that look alike come from different tables or passages of the source.

Tests used:
[1] = tested on: ATR-driven phosphorylation of Chk1 kinase at Serine 345 in HT-29 colorectal adenocarcinoma cells; test: pCHK1 cellular assay (CHK1 p-Ser345 AlphaScreen SureFire); format: cell-based; conditions: Homo sapiens, HT-29, HT-29 cells, 4-nitroquinoline N-oxide 12 uM; read-out: Cell IC50 (pCHK1 IC50 values)
Summary of the method: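 HT-29 cells seeded overnight, treated with 1:3 serially diluted compound for 90 minutes at 37° C., then 12 uM (final) 4-nitroquinoline N-oxide for 120 minutes. Lysates read for Chk1 p-Ser345 by AlphaScreen SureFire; IC50 from four-parameter logistic fit, normalized to DMSO (max) and 5 uM ATR inhibitor (min).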

ATR/ATRIP complex = ATR/ATRIP complex (Homo sapiens (Human), UniProt Q13535); test: ATR/ATRIP enzymatic assay (Caliper-based); format: biochemical; conditions: FAM-labeled RAD17 peptide, ATP
Chain of ATR/ATRIP complex (Q13535 whole entry): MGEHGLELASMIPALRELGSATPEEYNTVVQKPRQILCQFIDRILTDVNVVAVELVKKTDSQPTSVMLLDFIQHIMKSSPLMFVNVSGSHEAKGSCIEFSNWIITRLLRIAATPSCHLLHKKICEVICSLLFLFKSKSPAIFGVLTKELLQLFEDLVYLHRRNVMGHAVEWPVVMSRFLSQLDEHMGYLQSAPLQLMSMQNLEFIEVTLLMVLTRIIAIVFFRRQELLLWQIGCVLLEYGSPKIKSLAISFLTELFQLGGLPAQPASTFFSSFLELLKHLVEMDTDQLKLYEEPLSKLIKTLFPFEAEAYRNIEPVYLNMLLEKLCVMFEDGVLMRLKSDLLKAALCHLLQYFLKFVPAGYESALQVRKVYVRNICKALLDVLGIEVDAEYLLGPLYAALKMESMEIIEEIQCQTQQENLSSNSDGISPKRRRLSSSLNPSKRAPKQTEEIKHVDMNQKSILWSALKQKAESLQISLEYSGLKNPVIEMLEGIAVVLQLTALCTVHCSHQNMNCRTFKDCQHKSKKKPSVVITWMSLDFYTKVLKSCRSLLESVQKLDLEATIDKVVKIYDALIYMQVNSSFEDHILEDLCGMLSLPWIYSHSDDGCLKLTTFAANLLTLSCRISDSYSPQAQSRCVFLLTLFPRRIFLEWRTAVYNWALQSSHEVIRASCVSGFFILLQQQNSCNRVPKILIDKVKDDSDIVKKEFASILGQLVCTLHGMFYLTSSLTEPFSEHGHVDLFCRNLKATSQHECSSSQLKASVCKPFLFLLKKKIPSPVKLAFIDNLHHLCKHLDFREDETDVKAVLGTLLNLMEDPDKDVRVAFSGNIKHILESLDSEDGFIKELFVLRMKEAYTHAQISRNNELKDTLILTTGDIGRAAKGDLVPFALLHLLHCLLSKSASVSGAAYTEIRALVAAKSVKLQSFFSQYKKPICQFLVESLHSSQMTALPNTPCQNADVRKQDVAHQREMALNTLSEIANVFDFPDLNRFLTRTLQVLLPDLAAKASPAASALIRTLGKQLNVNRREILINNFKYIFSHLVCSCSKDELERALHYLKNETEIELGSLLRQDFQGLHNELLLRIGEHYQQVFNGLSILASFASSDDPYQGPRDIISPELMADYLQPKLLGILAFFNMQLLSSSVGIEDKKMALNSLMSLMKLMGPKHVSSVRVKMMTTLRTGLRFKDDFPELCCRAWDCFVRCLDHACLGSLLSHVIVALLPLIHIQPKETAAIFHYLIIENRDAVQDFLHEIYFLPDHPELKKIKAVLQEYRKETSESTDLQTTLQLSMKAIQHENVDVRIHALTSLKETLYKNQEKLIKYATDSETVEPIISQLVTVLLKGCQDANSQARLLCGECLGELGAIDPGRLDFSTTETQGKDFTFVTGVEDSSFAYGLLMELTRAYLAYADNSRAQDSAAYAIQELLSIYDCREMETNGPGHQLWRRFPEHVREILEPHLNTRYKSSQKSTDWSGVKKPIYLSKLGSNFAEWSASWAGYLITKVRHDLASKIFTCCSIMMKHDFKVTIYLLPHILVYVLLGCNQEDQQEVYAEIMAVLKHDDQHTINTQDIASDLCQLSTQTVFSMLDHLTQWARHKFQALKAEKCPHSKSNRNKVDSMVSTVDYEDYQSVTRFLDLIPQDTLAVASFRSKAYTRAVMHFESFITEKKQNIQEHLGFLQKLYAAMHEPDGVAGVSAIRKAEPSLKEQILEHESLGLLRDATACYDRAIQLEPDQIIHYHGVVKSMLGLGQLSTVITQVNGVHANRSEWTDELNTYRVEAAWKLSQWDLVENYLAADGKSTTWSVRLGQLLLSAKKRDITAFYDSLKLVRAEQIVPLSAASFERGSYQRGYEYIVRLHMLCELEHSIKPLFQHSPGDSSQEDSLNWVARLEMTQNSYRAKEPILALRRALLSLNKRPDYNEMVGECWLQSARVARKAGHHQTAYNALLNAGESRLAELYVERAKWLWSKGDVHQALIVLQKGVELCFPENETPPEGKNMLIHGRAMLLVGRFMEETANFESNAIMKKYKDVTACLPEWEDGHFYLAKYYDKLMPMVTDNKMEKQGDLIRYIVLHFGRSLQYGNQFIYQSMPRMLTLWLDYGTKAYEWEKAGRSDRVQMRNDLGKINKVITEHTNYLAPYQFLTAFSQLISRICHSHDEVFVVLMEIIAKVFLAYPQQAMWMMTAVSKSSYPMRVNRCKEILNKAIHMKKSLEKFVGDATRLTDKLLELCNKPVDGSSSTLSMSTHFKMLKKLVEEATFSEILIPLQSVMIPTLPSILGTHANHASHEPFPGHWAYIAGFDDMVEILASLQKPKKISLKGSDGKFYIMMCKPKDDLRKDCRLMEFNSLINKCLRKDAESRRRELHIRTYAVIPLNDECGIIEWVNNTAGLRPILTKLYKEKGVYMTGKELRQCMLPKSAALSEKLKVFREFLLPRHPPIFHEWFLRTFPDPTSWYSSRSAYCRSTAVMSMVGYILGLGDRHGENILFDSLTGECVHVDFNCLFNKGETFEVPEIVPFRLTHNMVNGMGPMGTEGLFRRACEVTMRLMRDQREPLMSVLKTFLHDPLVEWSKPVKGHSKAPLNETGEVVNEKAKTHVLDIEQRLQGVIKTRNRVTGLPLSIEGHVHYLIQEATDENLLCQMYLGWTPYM
Chain of ATR/ATRIP complex (Q8WXE1 whole entry partner): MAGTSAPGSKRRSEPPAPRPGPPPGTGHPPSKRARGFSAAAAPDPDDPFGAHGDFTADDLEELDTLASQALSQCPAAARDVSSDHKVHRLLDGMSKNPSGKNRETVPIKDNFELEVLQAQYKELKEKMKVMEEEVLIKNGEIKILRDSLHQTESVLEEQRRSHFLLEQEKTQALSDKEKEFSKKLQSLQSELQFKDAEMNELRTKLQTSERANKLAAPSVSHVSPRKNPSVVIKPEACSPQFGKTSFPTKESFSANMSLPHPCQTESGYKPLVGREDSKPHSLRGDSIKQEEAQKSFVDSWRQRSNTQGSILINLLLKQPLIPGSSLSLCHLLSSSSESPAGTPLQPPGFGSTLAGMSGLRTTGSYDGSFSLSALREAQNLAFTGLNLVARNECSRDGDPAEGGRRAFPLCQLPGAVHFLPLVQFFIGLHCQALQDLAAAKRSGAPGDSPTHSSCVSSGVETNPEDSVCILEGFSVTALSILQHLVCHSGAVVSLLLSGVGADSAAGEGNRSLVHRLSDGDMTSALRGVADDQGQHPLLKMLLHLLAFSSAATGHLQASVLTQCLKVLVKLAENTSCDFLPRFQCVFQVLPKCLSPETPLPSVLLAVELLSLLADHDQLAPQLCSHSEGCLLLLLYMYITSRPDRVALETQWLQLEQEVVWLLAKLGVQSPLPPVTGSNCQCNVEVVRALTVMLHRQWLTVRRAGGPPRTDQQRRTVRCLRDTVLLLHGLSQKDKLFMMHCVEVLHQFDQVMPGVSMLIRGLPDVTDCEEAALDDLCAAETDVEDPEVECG
Summary of the method: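 FLAG-TEV-ATR/His6-ATRIP co-expressed in HEK293 and anti-FLAG purified. Compound preincubated 30 min at 28 °C with enzyme (2x solution 4 nM), then FAM-RAD17 peptide (2x solution 10 uM, 2 μM ATP) added for 6 h at 28 °C; HEPES pH 8, 10 mM MnCl2. Caliper conversion read-out, IC50 from four-parameter fit.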

[2] = read-out: ATR/ATRIP Enzyme IC50

Compound	IC50 [1] [nM]	IC50 (ATR/ATRIP complex; [2]) [nM]	IC50 (ATR/ATRIP complex; estimated range, read-out: ATR/ATRIP Enzyme IC50 (estimated class)) [nM]
C[C@@H]1Cc2ncnc(N3CC(O)C3)c2CN1c1cc(Cl)nc2[nH]ccc12 [Example 77, (R)-1-(6-(6-chloro-1H-pyrrolo[2,3-b]pyridin-4-yl)-7-methyl-5,6,7,8-tetrahydropyrido[4,3-d]-pyrimidin-4-yl)azetidin-3-ol]	21	320	–
C[C@@H]1Cc2ncnc(C3CCN(S(C)(=O)=O)CC3)c2CN1c1ncnc2[nH]ccc12 [Example 23, 1-methanesulfonyl-4-[(7R)-7-methyl-6-{7H-pyrrolo[2,3-d]pyrimidin-4-yl}-5H,6H,7H,8H-pyrido[4,3-d]pyrimidin-4-yl]piperidine]	611	–	1000 to 10000
Cc1cc2c(N3Cc4c(ncnc4C4CCN(S(C)(=O)=O)CC4)C[C@H]3C)ccnc2[nH]1 [Example 94, (R)-7-methyl-6-(2-methyl-1H-pyrrolo[2,3-b]pyridin-4-yl)-4-(1-(methylsulfonyl)piperidin-4-yl)-5,6,7,8-tetrahydro-pyrido[4,3-d]pyrimidine]	98	51	–
C[C@@H]1Cc2ncnc(N3CC(C(C)(C)O)C3)c2CN1c1cc(Cl)nc2[nH]ccc12 [Example 33, 2-{1-[(7R)-6-{6-chloro-1H-pyrrolo[2,3-b]pyridin-4-yl}-7-methyl-5H,6H,7H,8H-pyrido[4,3-d]pyrimidin-4-yl]azetidin-3-yl}propan-2-ol]	15	183	–
C[C@@H]1Cc2ncnc(C3CCN(S(=O)(=O)C4CC4)CC3)c2CN1c1ccnc2[nH]ccc12 [Example 80, (R)-4-(1-(cyclopropyl-sulfonyl)piperidin-4-yl)-7-methyl-6-(1H-pyrrolo[2,3-b]pyridin-4-yl)-5,6,7,8-tetrahydro-pyrido[4,3-d]pyrimidine]	132	1090	–
C[C@@H]1Cc2ncnc(C3CCC(NS(C)(=O)=O)CC3)c2CN1c1cc(Cl)nc2[nH]ccc12 (stereo partly drawn) [Example 40, (R)-N-(4-(6-(6-chloro-1H-pyrrolo[2,3-b]pyridin-4-yl)-7-methyl-5,6,7,8-tetrahydropyrido[4,3-d]pyrimidin-4-yl)cyclohexyl)methane-sulfonamide]	24	899	–
C[C@@H]1Cc2ncnc(C3CCCN(S(C)(=O)=O)C3)c2CN1c1ccnc2[nH]ccc12 (stereo partly drawn) [Example 16, 1-methanesulfonyl-3-[(7R)-7-methyl-6-{1H-pyrrolo[2,3-b]pyridin-4-yl}-5H,6H,7H,8H-pyrido[4,3-d]pyrimidin-4-yl]piperidine]	140	3570	–
Cc1cc(N2Cc3c(ncnc3C3CCN(S(C)(=O)=O)CC3)C[C@H]2C)c2cc[nH]c2n1 [Example 56, (R)-7-methyl-6-(6-methyl-1H-pyrrolo[2,3-b]pyridin-4-yl)-4-(1-(methylsulfonyl)piperidin-4-yl)-5,6,7,8-tetrahydropyrido[4,3-d]pyrimidine]	52	773	–
